Experimental findings from ChEMBL document CHEMBL5375979, “Chemical, Biochemical, Cellular, and Physiological Characterization of Leucettinib-21, a Down Syndrome and Alzheimer's Disease Drug Candidate” (J Med Chem, 2023) are described below.

Test [1] deals with cGMP-dependent protein kinase 2 (Homo sapiens, UniProt Q13237).
Description: Inhibition of human PRKG2 assessed as remaining activity by eurofins-cerep kinase profiler analysis
The target of test [2] is Dual specificity protein kinase CLK3 (Homo sapiens, UniProt P49761). The conditions noted are these: dose 10.0 µM.
Test [3] deals with Serine/threonine-protein kinase haspin (Homo sapiens, UniProt Q8TF76).
Description: Inhibition of human HASPIN assessed as remaining activity by eurofins-cerep kinase profiler analysis
Test [4] concerns the target Transcription initiation factor TFIID subunit 1-like (Homo sapiens, UniProt Q8IZX4).
Description: Inhibition of human TAF1L assessed as remaining activity by eurofins-cerep kinase profiler analysis
Test [5] deals with BMP-2-inducible protein kinase (Homo sapiens) (UniProt Q9NSY1). As to conditions: dose 10.0 µM.
Test [6] addresses Serine/threonine-protein kinase TAO2 (Homo sapiens, UniProt Q9UL54).
Description: Inhibition of human TAO2 assessed as remaining activity by eurofins-cerep kinase profiler analysis
Test [7] deals with Serine/threonine-protein kinase TAO1 (Homo sapiens, UniProt Q7L7X3).
Description: Inhibition of human TAO1 assessed as remaining activity by eurofins-cerep kinase profiler analysis
Test [8] concerns the target T1, Dual specificity protein kinase CLK1 (Homo sapiens, UniProt P49759). As to conditions: dose 10.0 µM.
For test [9], the target named is Death-associated protein kinase 3 (Homo sapiens) (UniProt O43293). The conditions noted are these: dose 10.0 µM.
Test [10] has as its target Mitogen-activated protein kinase 15 (Homo sapiens) (UniProt Q8TD08). The conditions noted are these: dose 10.0 µM.
The target of test [11] is Serine/threonine-protein kinase TAO3 (Homo sapiens, UniProt Q9H2K8).
Description: Inhibition of human TAO3 assessed as remaining activity by eurofins-cerep kinase profiler analysis
Test [12] deals with T1, Dual specificity protein kinase CLK1.
The target in test [13] is Myotonin-protein kinase (Homo sapiens, UniProt Q09013).
Description: Inhibition of human DMPK assessed as remaining activity by eurofins-cerep kinase profiler analysis

The term IC50 denotes the concentration needed to halve the response being measured. Lower therefore signals inhibition by little substance. A word on the ΔTm: it is the change in melting temperature against a reference sample.

cGMP-dependent protein kinase 2, sequence (Q13237 whole entry): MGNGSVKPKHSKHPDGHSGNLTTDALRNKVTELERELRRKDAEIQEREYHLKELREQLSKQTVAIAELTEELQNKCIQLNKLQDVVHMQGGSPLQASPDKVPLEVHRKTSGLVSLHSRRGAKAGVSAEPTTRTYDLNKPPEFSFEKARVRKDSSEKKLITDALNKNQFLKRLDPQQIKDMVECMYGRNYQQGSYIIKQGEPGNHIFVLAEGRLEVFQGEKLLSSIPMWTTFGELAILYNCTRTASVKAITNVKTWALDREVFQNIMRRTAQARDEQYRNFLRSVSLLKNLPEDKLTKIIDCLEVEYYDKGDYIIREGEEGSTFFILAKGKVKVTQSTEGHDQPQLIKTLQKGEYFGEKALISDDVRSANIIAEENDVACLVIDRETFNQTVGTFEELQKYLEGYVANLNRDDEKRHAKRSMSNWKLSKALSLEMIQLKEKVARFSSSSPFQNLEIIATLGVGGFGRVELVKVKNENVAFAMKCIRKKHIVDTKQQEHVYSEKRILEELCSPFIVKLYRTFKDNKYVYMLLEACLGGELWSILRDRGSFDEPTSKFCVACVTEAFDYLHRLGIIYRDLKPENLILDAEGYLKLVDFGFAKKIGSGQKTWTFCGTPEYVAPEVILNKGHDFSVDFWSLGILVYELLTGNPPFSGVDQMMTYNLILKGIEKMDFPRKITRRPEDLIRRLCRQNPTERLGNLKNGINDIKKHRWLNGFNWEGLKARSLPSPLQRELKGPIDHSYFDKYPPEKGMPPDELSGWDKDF
Mitogen-activated protein kinase 15 (Homo sapiens), sequence (Q8TD08 whole entry): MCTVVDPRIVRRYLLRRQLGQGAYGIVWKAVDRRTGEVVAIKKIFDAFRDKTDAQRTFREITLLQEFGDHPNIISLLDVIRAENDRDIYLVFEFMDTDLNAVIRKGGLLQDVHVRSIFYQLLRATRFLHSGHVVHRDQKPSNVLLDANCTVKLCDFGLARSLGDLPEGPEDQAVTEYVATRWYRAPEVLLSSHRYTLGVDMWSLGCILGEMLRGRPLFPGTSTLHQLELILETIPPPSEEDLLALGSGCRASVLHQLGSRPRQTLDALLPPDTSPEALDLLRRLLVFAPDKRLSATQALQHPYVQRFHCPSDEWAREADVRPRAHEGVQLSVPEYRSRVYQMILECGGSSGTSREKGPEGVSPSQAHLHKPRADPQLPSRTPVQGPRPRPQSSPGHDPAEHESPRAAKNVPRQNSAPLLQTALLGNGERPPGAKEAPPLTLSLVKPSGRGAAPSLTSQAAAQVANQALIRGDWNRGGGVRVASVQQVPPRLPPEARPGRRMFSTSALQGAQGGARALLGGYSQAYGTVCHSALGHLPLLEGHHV
Dual specificity protein kinase CLK3, sequence (P49761 whole entry, looked up): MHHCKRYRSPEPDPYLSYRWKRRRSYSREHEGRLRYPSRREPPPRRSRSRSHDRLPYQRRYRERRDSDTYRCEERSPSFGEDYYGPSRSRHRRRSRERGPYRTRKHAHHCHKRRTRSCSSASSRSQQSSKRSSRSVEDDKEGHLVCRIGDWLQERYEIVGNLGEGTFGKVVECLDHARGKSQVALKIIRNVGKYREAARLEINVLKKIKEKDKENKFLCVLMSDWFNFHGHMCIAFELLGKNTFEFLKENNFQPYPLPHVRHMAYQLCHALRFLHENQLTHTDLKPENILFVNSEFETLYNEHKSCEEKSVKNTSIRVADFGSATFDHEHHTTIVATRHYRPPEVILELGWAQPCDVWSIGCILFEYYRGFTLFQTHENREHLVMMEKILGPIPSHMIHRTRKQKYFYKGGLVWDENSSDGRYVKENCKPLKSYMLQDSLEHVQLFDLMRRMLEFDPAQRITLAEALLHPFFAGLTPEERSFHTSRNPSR
Serine/threonine-protein kinase TAO1, sequence (Q7L7X3 whole entry): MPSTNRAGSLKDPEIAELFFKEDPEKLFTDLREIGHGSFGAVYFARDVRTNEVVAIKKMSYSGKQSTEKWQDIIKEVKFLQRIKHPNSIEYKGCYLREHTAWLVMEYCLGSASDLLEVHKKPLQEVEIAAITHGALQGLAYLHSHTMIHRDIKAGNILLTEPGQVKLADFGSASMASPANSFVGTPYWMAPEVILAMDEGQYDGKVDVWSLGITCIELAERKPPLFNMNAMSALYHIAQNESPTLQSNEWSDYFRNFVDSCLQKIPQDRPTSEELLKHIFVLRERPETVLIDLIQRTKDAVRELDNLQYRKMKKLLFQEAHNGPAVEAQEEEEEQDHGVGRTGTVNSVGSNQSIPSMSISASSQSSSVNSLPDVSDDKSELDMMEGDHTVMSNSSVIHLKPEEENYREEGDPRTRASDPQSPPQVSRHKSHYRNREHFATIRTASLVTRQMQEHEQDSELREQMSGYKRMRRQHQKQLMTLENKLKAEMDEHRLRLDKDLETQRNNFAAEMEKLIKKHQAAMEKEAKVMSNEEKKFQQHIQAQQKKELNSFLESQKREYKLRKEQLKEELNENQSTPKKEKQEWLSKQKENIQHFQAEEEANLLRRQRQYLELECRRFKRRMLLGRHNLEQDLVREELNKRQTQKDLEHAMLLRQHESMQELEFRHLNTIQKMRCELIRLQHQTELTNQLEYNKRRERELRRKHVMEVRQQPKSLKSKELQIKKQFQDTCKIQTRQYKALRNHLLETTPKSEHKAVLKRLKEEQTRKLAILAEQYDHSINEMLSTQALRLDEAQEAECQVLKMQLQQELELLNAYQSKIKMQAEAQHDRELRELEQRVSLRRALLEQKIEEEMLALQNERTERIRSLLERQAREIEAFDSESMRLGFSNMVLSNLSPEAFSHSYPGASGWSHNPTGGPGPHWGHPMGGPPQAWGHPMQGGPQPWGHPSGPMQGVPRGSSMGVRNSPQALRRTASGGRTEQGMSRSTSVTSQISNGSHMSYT
Serine/threonine-protein kinase haspin, sequence (Q8TF76 whole entry): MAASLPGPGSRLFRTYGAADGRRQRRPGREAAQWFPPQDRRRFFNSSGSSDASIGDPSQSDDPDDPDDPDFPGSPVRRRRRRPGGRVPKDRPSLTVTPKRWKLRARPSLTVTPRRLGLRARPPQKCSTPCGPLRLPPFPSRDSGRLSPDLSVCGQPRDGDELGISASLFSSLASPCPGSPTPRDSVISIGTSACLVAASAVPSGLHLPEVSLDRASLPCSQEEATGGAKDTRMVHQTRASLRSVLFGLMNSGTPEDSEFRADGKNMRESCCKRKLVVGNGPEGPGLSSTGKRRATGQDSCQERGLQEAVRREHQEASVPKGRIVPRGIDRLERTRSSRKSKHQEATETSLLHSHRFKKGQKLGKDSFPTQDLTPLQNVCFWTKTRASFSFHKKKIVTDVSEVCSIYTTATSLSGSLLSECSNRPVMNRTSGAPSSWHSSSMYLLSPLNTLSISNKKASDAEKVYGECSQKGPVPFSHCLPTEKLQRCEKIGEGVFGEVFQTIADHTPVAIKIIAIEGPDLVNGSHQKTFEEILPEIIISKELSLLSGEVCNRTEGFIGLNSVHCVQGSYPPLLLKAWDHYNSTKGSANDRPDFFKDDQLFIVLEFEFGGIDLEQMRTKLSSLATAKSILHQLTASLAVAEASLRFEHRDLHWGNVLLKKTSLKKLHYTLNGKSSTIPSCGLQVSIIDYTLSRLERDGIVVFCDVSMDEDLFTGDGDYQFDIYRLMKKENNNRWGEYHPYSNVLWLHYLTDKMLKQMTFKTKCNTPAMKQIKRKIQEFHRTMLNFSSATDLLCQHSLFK
Serine/threonine-protein kinase TAO2, sequence (Q9UL54 whole entry): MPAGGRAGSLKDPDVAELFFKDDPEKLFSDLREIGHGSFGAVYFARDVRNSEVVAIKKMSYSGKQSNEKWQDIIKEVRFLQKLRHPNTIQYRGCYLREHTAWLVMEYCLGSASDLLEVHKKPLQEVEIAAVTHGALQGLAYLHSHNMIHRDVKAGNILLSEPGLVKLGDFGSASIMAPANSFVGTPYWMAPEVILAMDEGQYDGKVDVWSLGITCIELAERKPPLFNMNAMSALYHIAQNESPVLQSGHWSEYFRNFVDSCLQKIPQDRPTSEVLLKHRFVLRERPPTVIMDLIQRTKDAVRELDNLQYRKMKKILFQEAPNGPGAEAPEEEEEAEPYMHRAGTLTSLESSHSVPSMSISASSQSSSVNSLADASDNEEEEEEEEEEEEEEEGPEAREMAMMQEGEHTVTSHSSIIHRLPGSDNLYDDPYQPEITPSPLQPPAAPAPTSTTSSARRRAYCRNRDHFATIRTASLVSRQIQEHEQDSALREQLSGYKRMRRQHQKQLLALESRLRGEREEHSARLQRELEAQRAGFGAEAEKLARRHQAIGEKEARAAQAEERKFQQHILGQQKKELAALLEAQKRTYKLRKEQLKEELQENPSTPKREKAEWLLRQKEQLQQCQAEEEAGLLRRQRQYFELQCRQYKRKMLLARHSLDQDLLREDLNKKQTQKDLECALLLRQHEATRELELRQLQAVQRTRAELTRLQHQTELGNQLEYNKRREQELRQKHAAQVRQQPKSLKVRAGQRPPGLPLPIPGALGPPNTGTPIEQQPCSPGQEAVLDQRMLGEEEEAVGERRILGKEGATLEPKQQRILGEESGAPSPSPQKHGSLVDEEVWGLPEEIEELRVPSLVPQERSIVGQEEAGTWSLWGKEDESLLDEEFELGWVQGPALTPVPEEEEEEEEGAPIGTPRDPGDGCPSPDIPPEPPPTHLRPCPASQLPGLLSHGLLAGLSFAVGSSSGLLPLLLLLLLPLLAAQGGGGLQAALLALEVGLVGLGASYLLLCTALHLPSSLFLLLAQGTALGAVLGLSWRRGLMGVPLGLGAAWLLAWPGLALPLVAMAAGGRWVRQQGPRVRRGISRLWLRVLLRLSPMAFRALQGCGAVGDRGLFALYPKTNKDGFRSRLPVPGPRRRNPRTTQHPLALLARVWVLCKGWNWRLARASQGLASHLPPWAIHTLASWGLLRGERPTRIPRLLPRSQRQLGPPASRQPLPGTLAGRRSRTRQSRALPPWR

As to `COC[C@@H](CC(C)C)NC1=N/C(=C\c2ccc3scnc3c2)C(=O)N1`, the IC50 in test [1] is above 10 µM; in test [3], above 10 µM; in test [4] it was above 1 µM; in test [6], above 10 µM; in test [7] it was above 10 µM; in test [11], above 10 µM. The IC50 in test [12] and in test [13] was above 1 µM throughout. For the same compound, the ΔTm was determined as 0.3 °C in [2]; 4 °C in [5]; 3 °C in test [8]; 1.2 °C in test [9]; 4.7 °C in test [10].
